Measurements: patent US20230406850A1, “CRYSTALLINE FORM OF HETEROCYCLIC COMPOUND, PREPARATION METHOD THEREFOR AND APPLICATION THEREOF” (WUHAN LL SCIENCE AND TECHNOLOGY DEVELOPMENT CO., LTD., priority 2020, published 2023)

Experiments:
[1] = target: T1, hP2X3 (human purinergic P2X receptor subtype 3) (Homo sapiens, UniProt P56373); assay: FLIPR intracellular calcium assay, hP2X3 in HEK293 cells; format: cell-based; conditions: agonist BZ-ATP 2.5 μM, read-out: P2X3 IC50
T1 construct: expressed in transfected cells
T1 sequence (P56373 1-397): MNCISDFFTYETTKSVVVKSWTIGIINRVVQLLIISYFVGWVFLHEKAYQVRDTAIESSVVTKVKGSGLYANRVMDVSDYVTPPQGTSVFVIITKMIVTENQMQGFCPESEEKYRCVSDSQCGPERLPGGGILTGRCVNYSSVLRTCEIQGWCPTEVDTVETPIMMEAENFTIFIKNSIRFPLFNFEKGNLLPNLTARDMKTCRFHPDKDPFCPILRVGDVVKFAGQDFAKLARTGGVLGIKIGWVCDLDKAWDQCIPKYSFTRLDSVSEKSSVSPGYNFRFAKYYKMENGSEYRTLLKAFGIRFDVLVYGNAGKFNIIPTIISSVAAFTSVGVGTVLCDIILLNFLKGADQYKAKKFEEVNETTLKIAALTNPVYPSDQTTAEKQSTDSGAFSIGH
Description: 18-24 hours before the FLIPR experiment, cells were seeded into 384 wells (10,000 cells/well) at a density of 400,000 cells/mL and incubated overnight in a cell culture incubator. […] 10 μL of test compound (dissolved at 10 mM in DMSO and serially diluted with buffer) or vehicle was then added to each well and allowed to equilibrate for 30 min at room temperature.

[2] = tested on: Dunkin Hartley guinea pigs, citric acid induced cough; assay: Simple citric acid cough model; format: in vivo, guinea pig; conditions: 30 mg/kg
Description: Male Dunkin Hartley guinea pigs (300-350 g) were placed in the animal atomization box, the door of the atomization box was closed, and the ultrasonic atomizer (Guangdong Yuehua) was opened at the same time, at the maximum atomization amount (about 2 mL/min) 17.5% citric acid gas was filled with the atomization box, which was continuously atomized for 20 seconds, and the cough performance of the animals was continuously observed within 10 min after the atomization started. During the 10-minute observation period, manual counting of coughs was required, and the number of coughs was judged according to the guinea pig's coughing posture, such as abdominal twitching, mouth opening, head down hooking, etc., as well as the sound of coughing, the number of coughs in the first 5 minutes and the number of coughs in the first 10 minutes were recorded, and the cough incubation period of guinea pigs was also recorded, that is, the time from citric acid induction to the first cough as well as the sound of coughing.

[3] = target: T2, hP2X2/3 (heterodimeric receptors formed by human purinergic P2X receptor subtypes 2 and 3) (Homo sapiens, UniProt P56373+Q9UBL9); assay: FLIPR intracellular calcium assay, hP2X2/3 in HEK293 cells (selectivity); format: cell-based
T2 construct: expressed in transfected cells
T2 sequence (P56373 1-397): T1 sequence (P56373 1-397)
T2 sequence (Q9UBL9 1-471): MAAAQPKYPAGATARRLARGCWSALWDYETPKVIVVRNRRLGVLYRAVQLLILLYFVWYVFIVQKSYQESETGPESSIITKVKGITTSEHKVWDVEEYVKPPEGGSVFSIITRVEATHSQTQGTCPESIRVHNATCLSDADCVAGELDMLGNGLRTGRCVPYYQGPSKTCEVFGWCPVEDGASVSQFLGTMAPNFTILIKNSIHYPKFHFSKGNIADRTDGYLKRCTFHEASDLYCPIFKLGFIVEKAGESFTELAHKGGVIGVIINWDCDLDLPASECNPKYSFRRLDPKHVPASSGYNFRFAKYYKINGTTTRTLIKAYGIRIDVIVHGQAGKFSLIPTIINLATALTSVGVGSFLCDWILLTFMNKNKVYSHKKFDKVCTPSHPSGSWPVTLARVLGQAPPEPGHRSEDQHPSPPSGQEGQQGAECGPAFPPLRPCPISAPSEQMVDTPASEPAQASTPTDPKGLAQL
Description: 18-24 hours before the FLIPR experiment, cells were seeded into 96 wells (25000 cells/well) ata density of 250000 cells/mL and incubated overnight in a cell culture incubator. […] 75 μL 1 mM Fluo-4 AM fluorescent dye (Thermo, F14202) was added to each well, and the dye load was incubated for 1.0 hour at 37° C. Then, the 96-well plate was washed once with buffer, and 50 μL of buffer containing test compound or vehicle was added to each well, and it was incubated at room temperature for 30 minutes. […] Then agonist (BZ-ATP (Sigma, B6396) at a final concentration of 5 μM) or vehicle (ultrapure water) was added at 50 μL/well, the fluorescence value was measured at 1-second intervals for 2 minutes, and finally the output fluorescence was counted analysis.

[4] = tested on: SD rats; assay: Taste disorder test by double bottle method; format: in vivo, rat; conditions: for Quinine/tap water * 100%: single intraperitoneal injection, 15 minutes
Source text: SPF male SD rats (6-8 weeks) received 3 days of adaptive drinking water training immediately after storage, and the specific training content was that animals were kept in a single cage, and two bottles of water (both common drinking water) were placed in each cage, and during the adaptive training, water treatment was forbidden all night (the drinking water bottle was removed), and drinking water was given again at 8:30 am to 5:30 pm, and then this cycle lasted for 3 days, and the two bottles of water were changed every day, and during the whole adaptive training period, animals were ate freely. All animal water bottles were removed 20 hours before the formal experiment, and water was banned until the time of the experiment. During the formal experiment, all animals were randomly divided into groups, and the test compound or vehicle was given before the water supply was renewed, and the drug was given by single intraperitoneal injection, and the administration time was determined according to the Tmax of the test compound. Then, the animals were placed in a single cage, and given two bottles of drinking water, one bottle of ordinary drinking water and one bottle of 0.3 mM tonic water, and the water consumption of animals was observed within 15 minutes, and the quinine water consumption/ordinary water consumption was statistically analyzed, with positive compound 2 as the positive control of taste disorder.

[5] = tested on: Dunkin Hartley guinea pigs, ATP-citric acid induced cough; assay: ATP-citric acid cough model; format: in vivo, guinea pig
Description: Male Dunkin Hartley guinea pigs (300-400 g) were placed in a whole-body volume scanning box for 3 to 5 minutes, and then subjected to ATP atomization for 2 minutes, with an interval of 3 minutes, followed by citric acid atomization for 5 minutes, and all atomization rates were about 300 μL/min. From citrate acid atomization, cough times and cough latency of animals within 10 min were recorded. During the 10-minute observation period, manual counting of coughs was required, and the number of coughs was judged according to the guinea pig's coughing posture, such as abdominal twitching, mouth opening, head down hooking, etc., as well as the sound of coughing, the number of coughs in the first 10 minutes were recorded, and the cough incubation period of guinea pigs was also recorded.
Animals were divided into vehicle group, dextromethorphan (63 mg/kg) positive group, AF-219 (30 mg/kg) positive group and compound 172 (3, 10, 30 mg/kg) administration group of Embodiment. All compounds were administered orally, except dextromethorphan, which was administered 40 minutes before ATP-citric acid exposure, and the rest compounds were […].

COC(=O)N1CCO[C@@H](Cc2c(-c3c(F)cc(S(N)(=O)=O)cc3F)nc3cc(Cl)ccn23)C1 [Compound 172, methyl (S)-2-((7-chloro-2-(2,6-difluoro-4-sulfamoylphenyl)imidazo[1,2-a]pyridin-3-yl)methyl)morpholine-4-carboxylate]
IC50 [1]: 0.7 nM | efficacy in words [2]: comparable to the efficacy of positive compound | IC50 ([3]; HEK293 cells, agonist BZ-ATP 5 μM): > 60000 nM | Selectivity multiple ([3]; P2X2/3 versus P2X3): >85714 | Quinine/tap water * 100% ([4]; 5 mg/kg): 7.05% | Quinine/tap water * 100% ([4]; 10 mg/kg): 7.41% | Quinine/tap water * 100% ([4]; 20 mg/kg): 8.66% | effect on quinine/water ratio in words ([4]; 5, 10 and 20 mg/kg): no obvious effect on the quinine/water ratio of rats | Cough suppression rate vs Vehicle ([5]; 3 mg/kg oral): 30.80% | Cough suppression rate vs Vehicle ([5]; 10 mg/kg oral): 51.20% | Cough suppression rate vs Vehicle ([5]; 30 mg/kg oral): 52.80% | effect on number of coughs compared with the vehicle group, in words ([5]; guinea pig, in vivo): significantly reduce the number of coughs
